Each substance was assayed on HLA-A*02 (assay: MHC binding assay, UV-ligand exchange with β2m ELISA, HLA-A*02 (Table 20)). Settings: binding to HLA-A*02 ranged by peptide exchange yield (UV-ligand exchange, β2m ELISA).
Set-up: species or system human
Description: (§1) Candidate peptides for T cell based therapies according to the present invention were further tested for their MHC binding capacity (affinity). The individual peptide-MHC complexes were produced by UV-ligand exchange, where a UV-sensitive peptide is cleaved upon UV-irradiation, and exchanged with the peptide of interest as analyzed. Only peptide candidates that can effectively bind and stabilize the peptide-receptive MHC molecules prevent dissociation of the MHC complexes. To determine the yield of the exchange reaction, an ELISA was performed based on the detection of the light chain ((β2m) of stabilized MHC complexes. The assay was performed as generally described in Rodenko et al. (Rodenko et al., 2006).
(§2) 96 well MAXISorp plates (NUNC) were coated over night with 2 ug/ml streptavidin in PBS at room temperature, washed 4× and blocked for 1 h at 37° C. in 2% BSA containing blocking buffer. Refolded HLA-A*02:01/MLA-001 monomers served as standards, covering the range of 15-500 ng/ml. Peptide-MHC monomers of the UV-exchange reaction were diluted 100 fold in blocking buffer. Samples were incubated for 1 h at 37° C., washed four times, incubated with 2 ug/ml HRP conjugated anti-β2m for 1 h at 37° C., washed again and detected with TMB solution that is stopped with […]. Absorption was measured at 450 nm. Candidate peptides that show a high exchange yield (preferably higher than 50%, most preferred higher than 75%) are generally preferred for a generation and production of antibodies or fragments thereof, and/or T cell receptors or fragments thereof, as they show sufficient avidity to the MHC molecules and prevent dissociation of the MHC complexes.

Peptide exchange	Substance
++++ (≧75% = ++++)	3 (KLEENGDLYL; listed as Homo sapiens) [compound 3]
++ (20%-49% = ++)	22 (FVDPNTQEKV; listed as Homo sapiens) [compound 22]
++ (20%-49% = ++)	13 (ALMAMLVYV; listed as Homo sapiens) [compound 13]
++ (20%-49% = ++)	109 (SLDPSVTHL; listed as Homo sapiens) [compound 109]
++++ (≧75% = ++++)	257 (GLYTDPCGV; listed as Homo sapiens) [compound 257]
+++ (50%-75% = +++)	74 (TLFGYSVVL; listed as Homo sapiens) [compound 74]
+++ (50%-75% = +++)	53 (KMVGLVVAI; listed as Homo sapiens) [compound 53]
+++ (50%-75% = +++)	24 (TLDEKVAEL; listed as Homo sapiens) [compound 24]
+++ (50%-75% = +++)	25 (TMDSVLVTV; listed as Homo sapiens) [compound 25]
+++ (50%-75% = +++)	9 (FLVDGSYSI; listed as Homo sapiens) [compound 9]
+++ (50%-75% = +++)	107 (LLVPTSGIYFV; listed as Homo sapiens) [compound 107]
+++ (50%-75% = +++)	156 (ILGDLSHLL; listed as Homo sapiens) [compound 156]
+++ (50%-75% = +++)	66 (KLIFSVEAV; listed as Homo sapiens) [compound 66]
+++ (50%-75% = +++)	33 (YIKTELISV; listed as Homo sapiens) [compound 33]
++ (20%-49% = ++)	241 (KTIQQLETV; listed as Homo sapiens) [compound 241]
+++ (50%-75% = +++)	49 (ALNIATHVL; listed as Homo sapiens) [compound 49]
+++ (50%-75% = +++)	44 (SLFETAWEA; listed as Homo sapiens) [compound 44]
++ (20%-49% = ++)	98 (RLFPDFFTRVAL; listed as Homo sapiens) [compound 98]
+ (<20% = +)	82 (FIFDEAEKL; listed as Homo sapiens) [compound 82]
++ (20%-49% = ++)	244 (YLLEKNRVV; listed as Homo sapiens) [compound 244]
+++ (50%-75% = +++)	104 (ALISWQPPRA; listed as Homo sapiens) [compound 104]
+++ (50%-75% = +++)	38 (FLGPRIIGL; listed as Homo sapiens) [compound 38]
++ (20%-49% = ++)	238 (GLYERPTAA; listed as Homo sapiens) [compound 238]

Second part, the substance before the results:

Substance	Peptide exchange
133 (ALLPRLHQL; listed as Homo sapiens) [compound 133]	++++ (≧75% = ++++)
136 (FLFGGVLMTL; listed as Homo sapiens) [compound 136]	++ (20%-49% = ++)
255 (SLLHFTENL; listed as Homo sapiens) [compound 255]	+++ (50%-75% = +++)
60 (ALFAPLVHL; listed as Homo sapiens) [compound 60]	+++ (50%-75% = +++)
84 (ALCPRIHEV; listed as Homo sapiens) [compound 84]	++++ (≧75% = ++++)
37 (ILAPFSVDL; listed as Homo sapiens) [compound 37]	+++ (50%-75% = +++)
61 (AIVKEIVNI; listed as Homo sapiens) [compound 61]	++ (20%-49% = ++)
32 (VQLDSIEDLEV; listed as Homo sapiens) [compound 32]	+++ (50%-75% = +++)
259 (ILLPRIIEA; listed as Homo sapiens) [compound 259]	+++ (50%-75% = +++)
40 (VLIDPQWVLTA; listed as Homo sapiens) [compound 40]	+++ (50%-75% = +++)
131 (VTSNSGILGV; listed as Homo sapiens) [compound 131]	+++ (50%-75% = +++)
87 (TIYKDFVYI; listed as Homo sapiens) [compound 87]	++ (20%-49% = ++)
71 (VLHSKFWVV; listed as Homo sapiens) [compound 71]	+++ (50%-75% = +++)
64 (SLFPDSLIV; listed as Homo sapiens) [compound 64]	++ (20%-49% = ++)
28 (SLPNGKPVSV; listed as Homo sapiens) [compound 28]	+++ (50%-75% = +++)
111 (AIVDLIHDI; listed as Homo sapiens) [compound 111]	++ (20%-49% = ++)
124 (KVMATIEKV; listed as Homo sapiens) [compound 124]	++ (20%-49% = ++)
65 (SVVPDVRSV; listed as Homo sapiens) [compound 65]	++ (20%-49% = ++)
77 (TLIDEQDIPLV; listed as Homo sapiens) [compound 77]	+++ (50%-75% = +++)
34 (FLLATEVVTV; listed as Homo sapiens) [compound 34]	++++ (≧75% = ++++)

Each substance was assayed on HLA-A*24 (assay: MHC binding assay, UV-ligand exchange with β2m ELISA, HLA-A*24 (Table 21)). Settings: binding to HLA-A*24 ranged by peptide exchange yield (UV-ligand exchange, β2m ELISA).
Set-up: species or system human
Description: as §1, §2

Peptide exchange	Substance
++++ (≧75% = ++++)	172 (TYTTVPRVAF; listed as Homo sapiens) [compound 172]
++++ (≧75% = ++++)	187 (TYLRDQHFL; listed as Homo sapiens) [compound 187]
++++ (≧75% = ++++)	278 (RYISDQLFTNF; listed as Homo sapiens) [compound 278]
++++ (≧75% = ++++)	271 (LYHDIFSRL; listed as Homo sapiens) [compound 271]
+++ (50%-75% = +++)	183 (VFTSTARAF; listed as Homo sapiens) [compound 183]
++++ (≧75% = ++++)	217 (FFPPTRQMGLLF; listed as Homo sapiens) [compound 217]
++++ (≧75% = ++++)	192 (SYALLTYMI; listed as Homo sapiens) [compound 192]
+++ (50%-75% = +++)	273 (TYIKPISKL; listed as Homo sapiens) [compound 273]
+++ (50%-75% = +++)	185 (IYKVGAPTI; listed as Homo sapiens) [compound 185]
+++ (50%-75% = +++)	198 (LYLDKATLI; listed as Homo sapiens) [compound 198]
++++ (≧75% = ++++)	267 (KYMVYPQTF; listed as Homo sapiens) [compound 267]
+++ (50%-75% = +++)	287 (LYITEPKTI; listed as Homo sapiens) [compound 287]
++ (20%-49% = ++)	286 (RYPDNLKHL; listed as Homo sapiens) [compound 286]

Further lines, the substance ahead of its results:

Substance	Peptide exchange
184 (VFQNFPLLF; listed as Homo sapiens) [compound 184]	++++ (≧75% = ++++)
179 (MYDSYWRQF; listed as Homo sapiens) [compound 179]	++++ (≧75% = ++++)
186 (IFPQFLYQF; listed as Homo sapiens) [compound 186]	++++ (≧75% = ++++)
193 (RFHPTPLLL; listed as Homo sapiens) [compound 193]	++++ (≧75% = ++++)
277 (VYQGHTALL; listed as Homo sapiens) [compound 277]	++++ (≧75% = ++++)
178 (IFIEVFSHF; listed as Homo sapiens) [compound 178]	+++ (50%-75% = +++)
272 (QYLQDAYSF; listed as Homo sapiens) [compound 272]	++++ (≧75% = ++++)
177 (VYPWLGALL; listed as Homo sapiens) [compound 177]	++++ (≧75% = ++++)
228 (KYTSWYVAL; listed as Homo sapiens) [compound 228]	++++ (≧75% = ++++)
284 (RYLNKAFHI; listed as Homo sapiens) [compound 284]	+++ (50%-75% = +++)
288 (VYVSDIQEL; listed as Homo sapiens) [compound 288]	+++ (50%-75% = +++)
282 (KFVDSTFYL; listed as Homo sapiens) [compound 282]	++++ (≧75% = ++++)
227 (IFLDYEAGTLSF; listed as Homo sapiens) [compound 227]	++++ (≧75% = ++++)
206 (EYQENFLSF; listed as Homo sapiens) [compound 206]	+++ (50%-75% = +++)
211 (YYLEVGKTLI; listed as Homo sapiens) [compound 211]	++++ (≧75% = ++++)
180 (IYDDSFIRPVTF; listed as Homo sapiens) [compound 180]	+++ (50%-75% = +++)

Source: US20170189504A1, “NOVEL PEPTIDES AND COMBINATION OF PEPTIDES FOR USE IN IMMUNOTHERAPY AGAINST VARIOUS CANCERS” (immatics biotechnologies GmbH, priority 2015, published 2017)
